23 molecules from patent publication US11312719B2, “9-substituted amino triazolo quinazoline derivatives as adenosine receptor antagonists, pharmaceutical compositions and their use” (Merck Sharp & Dohme Corp., priority 2018, dated 2022) can be followed below.

pIC50: −log10 of the molar value.

Assay [1] concerns the target human A2B receptors (Homo sapiens (Human), UniProt P29275). The assay is described as follows: A2B antagonism in cAMP cell-based assay (LANCE cAMP, HEK293). To be noted: HEK293 cells expressing human A2B receptor; for A2B cAMP % Inh. @10000 nM: at 10000 nM. In short, it runs like this:
(§1)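 HEK293 cells expressing human A2A or A2B, in HBSS/5 mM HEPES/200 nM rolipram, were preincubated with compound (0.5–10,000 nM, 0.25% DMSO) 30 min at 37° C. Adenosine was then added from 300 nM (A2A) or 600 nM (A2B) solution for 30 min.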
(In general: In TR-FRET formats the signal depends on donor and acceptor labels being close together.)

Assay [2] has as its target human A2A receptors (Homo sapiens (Human), UniProt P29274). The assay is described as follows: A2A antagonism in cAMP cell-based assay (LANCE cAMP, HEK293). As to conditions: HEK293 cells expressing human A2A receptor. An outline of the steps: as §1

Chain of human A2A receptors (P29274 whole entry): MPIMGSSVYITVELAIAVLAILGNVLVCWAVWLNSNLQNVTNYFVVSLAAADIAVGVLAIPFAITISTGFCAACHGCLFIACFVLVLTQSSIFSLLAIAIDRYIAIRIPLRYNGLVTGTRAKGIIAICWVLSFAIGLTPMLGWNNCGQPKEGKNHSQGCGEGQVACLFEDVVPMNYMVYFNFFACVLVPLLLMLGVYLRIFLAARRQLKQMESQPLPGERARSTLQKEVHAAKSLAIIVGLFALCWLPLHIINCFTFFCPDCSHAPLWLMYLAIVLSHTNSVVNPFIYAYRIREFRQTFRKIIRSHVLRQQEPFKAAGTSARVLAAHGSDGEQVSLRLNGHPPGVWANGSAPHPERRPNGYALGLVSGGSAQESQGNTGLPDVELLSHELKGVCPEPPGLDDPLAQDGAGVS
Chain of human A2B receptors (P29275 whole entry): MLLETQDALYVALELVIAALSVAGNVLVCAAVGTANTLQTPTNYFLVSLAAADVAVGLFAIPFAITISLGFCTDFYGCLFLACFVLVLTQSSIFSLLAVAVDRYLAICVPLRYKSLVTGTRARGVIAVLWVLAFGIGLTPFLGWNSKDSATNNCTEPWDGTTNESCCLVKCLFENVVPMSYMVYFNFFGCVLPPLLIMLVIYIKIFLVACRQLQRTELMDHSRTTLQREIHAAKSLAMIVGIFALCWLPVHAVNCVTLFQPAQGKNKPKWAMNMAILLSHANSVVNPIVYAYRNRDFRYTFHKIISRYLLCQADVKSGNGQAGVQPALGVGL

As a reminder, the pIC50 is the IC50 on a negative log10 scale, so that one unit is a factor of ten. Consider `CC(O)C(C)n1cc(N2CC(c3nc4c5cc(F)cc(F)c5nc(N)n4n3)CCC2C)cn1` (single isomer, unassigned) [Example 235, (2S,3S or 2R,3R)-3-(4-((2R,5S or 2S,5R)-5-(5-amino-7,9-difluoro-[1,2,4]triazolo[1,5-c]quinazolin-2-yl)-2-methylpiperidin-1-yl)-1H-pyrazol-1-yl)butan-2-ol], for which the pIC50 in assay [1] was 5.35; in assay [2] it was 6.36.

As to `COc1cc2nc(N)n3nc(C4CCC(C)N(c5cnn(C(C)C(C)O)c5)C4)nc3c2cc1F` (single isomer, unassigned) [Example 236, (2S,3R or 2R,3S)-3-(4-((2S,5R or 2R,5S)-5-(5-amino-9-fluoro-8-methoxy-[1,2,4]triazolo[1,5-c]quinazolin-2-yl)-2-methylpiperidin-1-yl)-1H-pyrazol-1-yl)butan-2-ol], the pIC50 in assay [1] was 8.29; in assay [2], 9.00.

On to `COc1cc2nc(N)n3nc(C4CCC(C)N(c5cnn(C(C)C(C)O)c5)C4)nc3c2cc1F` (single isomer, unassigned) [Example 237, (2R,3S or 2S,3R)-3-(4-((2S,5R or 2R,5S)-5-(5-amino-9-fluoro-8-methoxy-[1,2,4]triazolo[1,5-c]quinazolin-2-yl)-2-methylpiperidin-1-yl)-1H-pyrazol-1-yl)butan-2-ol], for which the values for the pIC50 in assay [1] and in assay [2] were 8.06 and 9.10, respectively.

In the case of `COc1cc2nc(N)n3nc(C4CCC(C)N(c5cnn(C(C)C(C)O)c5)C4)nc3c2cc1F` (single isomer, unassigned) [Example 238, (2S,3R or 2R,3S)-3-(4-((2R,5S or 2S,5R)-5-(5-amino-9-fluoro-8-methoxy-[1,2,4]triazolo[1,5-c]quinazolin-2-yl)-2-methylpiperidin-1-yl)-1H-pyrazol-1-yl)butan-2-ol], the pIC50 was 5.61 in assay [1] and 7.66 in assay [2].

For the molecule `COc1cc2nc(N)n3nc(C4CCC(C)N(c5cnn(C(C)C(C)O)c5)C4)nc3c2cc1F` (single isomer, unassigned) [Example 239, (2R,3S or 2S,3R)-3-(4-((2R,5S or 2S,5R)-5-(5-amino-9-fluoro-8-methoxy-[1,2,4]triazolo[1,5-c]quinazolin-2-yl)-2-methylpiperidin-1-yl)-1H-pyrazol-1-yl)butan-2-ol], the “A2B cAMP % Inh. @10000 nM” value in assay [1] stood at 10% Inh. Further, the pIC50 in assay [2] was 7.12.

Take `COc1cc2nc(N)n3nc([C@@H]4CCCN(c5cnn(C(C)(C)C(C)O)c5)C4)nc3c2cc1F` (single isomer, unassigned) [Example 242, (R or S)-3-(4-((R)-3-(5-amino-9-fluoro-8-methoxy-[1,2,4]triazolo[1,5-c]quinazolin-2-yl)piperidin-1-yl)-1H-pyrazol-1-yl)-3-methylbutan-2-ol]: the negative logarithm of the IC50 (pIC50) in assay [1] is 7.46; in assay [2] it was 8.70.

As to `COc1cc2nc(N)n3nc([C@@H]4CCCN(c5cnn(C(C)(C)C(C)O)c5)C4)nc3c2cc1F` (single isomer, unassigned) [Example 243, (S or R)-3-(4-((R)-3-(5-amino-9-fluoro-8-methoxy-[1,2,4]triazolo[1,5-c]quinazolin-2-yl)piperidin-1-yl)-1H-pyrazol-1-yl)-3-methylbutan-2-ol], the pIC50 was 7.29 in assay [1] and 8.59 in assay [2].

In the case of `COc1cc(F)cc2c1nc(N)n1nc([C@@H]3CCCN(c4cnn(C(C)(C)C(C)O)c4)C3)nc21` (single isomer, unassigned) [Example 244, (R or S)-3-(4-((R)-3-(5-amino-9-fluoro-7 methoxy-[1,2,4]triazolo[1,5-c]quinazolin-2-yl)piperidin-1-yl)-1H-pyrazol-1-yl)-3-methylbutan-2-ol], the pIC50 was 7.73 in assay [1] and 9.05 in assay [2].

As for `COc1cc(F)cc2c1nc(N)n1nc([C@@H]3CCCN(c4cnn(C(C)(C)C(C)O)c4)C3)nc21` (single isomer, unassigned) [Example 245, (S or R)-3-(4-((R)-3-(5-amino-9-fluoro-7 methoxy-[1,2,4]triazolo[1,5-c]quinazolin-2-yl)piperidin-1-yl)-1H-pyrazol-1-yl)-3-methylbutan-2-ol], the results for the pIC50 in assay [1] and in assay [2] were 7.59 and 8.70, respectively.

Turning to `CC(O)C(C)(C)n1cc(N2CCC[C@@H](c3nc4c5cc(F)cc(F)c5nc(N)n4n3)C2)cn1` (single isomer, unassigned) [Example 246, (R or S)-3-(4-((R)-3-(5-amino-7,9-difluoro-[1,2,4]triazolo [1,5-c]quinazolin-2-yl)piperidin-1-yl)-1H-pyrazol-1-yl)-3-methylbutan-2-ol], the pIC50 was 7.67 in assay [1] and 8.49 in assay [2].

`CC(O)C(C)(C)n1cc(N2CCC[C@@H](c3nc4c5cc(F)cc(F)c5nc(N)n4n3)C2)cn1` (single isomer, unassigned) [Example 247, (S or R)-3-(4-((R)-3-(5-amino-7,9-difluoro-[1,2,4]triazolo [1,5-c]quinazolin-2-yl)piperidin-1-yl)-1H-pyrazol-1-yl)-3-methylbutan-2-ol]: the pIC50 in assay [1] is 7.66; in assay [2], 8.35.

As for `C[C@H]1CC[C@@H](c2nc3c4cc(F)cc(F)c4nc(N)n3n2)CN1c1cnn(C(C)(CO)CO)c1` (single isomer, unassigned) [Example 248, 2-(4-((2S,5R or 2R,5S)-5-(5-amino-7,9-difluoro-[1,2,4]triazolo[1,5-c]quinazolin-2-yl)-2-methylpiperidin-1-yl)-1H-pyrazol-1-yl)-2-methylpropane-1,3-diol], the results for the pIC50 in assay [1] and in assay [2] were 8.08 and 8.85, respectively.

For the molecule `C[C@@H]1CC[C@H](c2nc3c4cc(F)cc(F)c4nc(N)n3n2)CN1c1cnn(C(C)(CO)CO)c1` (single isomer, unassigned) [Example 249, 2-(4-((2R,5S or 2S,5R)-5-(5-amino-7,9-difluoro-[1,2,4]triazolo[1,5-c]quinazolin-2-yl)-2-methylpiperidin-1-yl)-1H-pyrazol-1-yl)-2-methylpropane-1,3-diol], the pIC50 in assay [1] was 6.71; in assay [2], 7.57.

For the molecule `COc1cc2nc(N)n3nc(C4CCC(C)N(c5cnn(C(C)(CO)CO)c5)C4)nc3c2cc1F` (single isomer, unassigned) [Example 250, 2-(4-((2S,5R or 2R,5S)-5-(5-amino-9-fluoro-8-methoxy-[1,2,4]triazolo[1,5-c]quinazolin-2-yl)-2-methylpiperidin-1-yl)-1H-pyrazol-1-yl)-2-methylpropane-1,3-diol], the negative-log IC50 (pIC50) was 8.31 in assay [1] and 9.15 in assay [2].

For `COc1cc2nc(N)n3nc(C4CCC(C)N(c5cnn(C(C)(CO)CO)c5)C4)nc3c2cc1F` (single isomer, unassigned) [Example 251, 2-(4-((2R,5S or 2S,5R)-5-(5-amino-9-fluoro-8-methoxy-[1,2,4]triazolo[1,5-c]quinazolin-2-yl)-2-methylpiperidin-1-yl)-1H-pyrazol-1-yl)-2-methylpropane-1,3-diol], the negative logarithm of the IC50 (pIC50) in assay [1] is 6.41; in assay [2], 7.40.

Regarding `COc1cc2nc(N)n3nc(C4CCC(C)N(c5cnn(CC(C)(O)CO)c5)C4)nc3c2cc1F` (single isomer, unassigned) [Example 252], the negative logarithm of the IC50 (pIC50) was 5.09 in assay [1] and 7.02 in assay [2].

Turning to `COc1cc2nc(N)n3nc(C4CCC(C)N(c5cnn(CC(C)(O)CO)c5)C4)nc3c2cc1F` (single isomer, unassigned) [Example 253, (S or R)-2-(4-((2S,5R or 2R,5S)-5-(5-amino-9-fluoro-8-methoxy-[1,2,4]triazolo[1,5-c]quinazolin-2-yl)-2-methylpiperidin-1-yl)-1H-pyrazol-1-yl)-2-methylpropane-1,2-diol], the pIC50 in assay [1] was under 5.00; in assay [2], 6.91.

Turning to `COc1cc2nc(N)n3nc(C4CCC(C)N(c5cnn(CC(C)(O)CO)c5)C4)nc3c2cc1F` (single isomer, unassigned) [Example 254], the pIC50 in assay [1] was 8.00; in assay [2], 8.82.

Consider `COc1cc2nc(N)n3nc(C4CCC(C)N(c5cnn(CC(C)(O)CO)c5)C4)nc3c2cc1F` (single isomer, unassigned) [Example 255], for which the pIC50 in assay [1] was 7.54; in assay [2] it was 8.59.

For `CC1CCC(c2nc3c4cc(F)cc(F)c4nc(N)n3n2)CN1c1cnn(CC(C)(O)CO)c1` (single isomer, unassigned) [Example 256], the negative logarithm of the IC50 (pIC50) was 5.41 in assay [1] and 6.62 in assay [2].

Consider `CC1CCC(c2nc3c4cc(F)cc(F)c4nc(N)n3n2)CN1c1cnn(CC(C)(O)CO)c1` (single isomer, unassigned) [Example 257, (S or R)-2-(4-((2S,5R or 2R,5S)-5-(5-amino-7,9-difluoro-[1,2,4]triazolo[1,5-c]quinazolin-2-yl)-2-methylpiperidin-1-yl)-1H-pyrazol-1-yl)-2-methylpropane-1,2-diol], for which the “A2B cAMP % Inh. @10000 nM” value in assay [1] was found to be 25% Inh. Also, in assay [2], the pIC50 is 6.27.

As to `CC1CCC(c2nc3c4cc(F)cc(F)c4nc(N)n3n2)CN1c1cnn(CC(C)(O)CO)c1` (single isomer, unassigned) [Example 258, (R or S)-2-(4-((2R,5S or 2S,5R)-5-(5-amino-7,9-difluoro-[1,2,4]triazolo[1,5-c]quinazolin-2-yl)-2-methylpiperidin-1-yl)-1H-pyrazol-1-yl)-2-methylpropane-1,2-diol], the figures for the pIC50 in assay [1] and in assay [2] were 8.09 and 8.64, respectively.

Consider `CC1CCC(c2nc3c4cc(F)cc(F)c4nc(N)n3n2)CN1c1cnn(CC(C)(O)CO)c1` (single isomer, unassigned) [Example 259, (S or R)-2-(4-((2R,5S or 2S,5R)-5-(5-amino-7,9-difluoro-[1,2,4]triazolo[1,5-c]quinazolin-2-yl)-2-methylpiperidin-1-yl)-1H-pyrazol-1-yl)-2-methylpropane-1,2-diol], for which the pIC50 in assay [1] is 7.93; in assay [2], 8.64.
